Measured values published in PubChem BioAssay AID504505 (The Scripps Research Institute Molecular Screening Center, 2011).

Tested on: Abhydrolase domain-containing protein 11 (ABHD11), mouse
Assay: ABHD11 inhibition in mouse cells, late-stage follow-up, selectivity assay for LYPLA1 inhibitor project, cell-based, gel-based fluorescent ABPP (AID 504505)
Details: ABHD11 labeling, at 0.03 µM, stronger effect = higher value

inhibition: 100%
Compound: CCC1CCCCN1C(=O)n1ncc(C(O)(c2ccccc2)c2ccccc2)n1 (stereo unspecified)
